The text below walks through data of the METLIN SMRT retention time set (Domingo-Almenara et al. 2019).

This data set in a line: gradient 5% acetonitrile 3 min, to 50% in 2 min, to 85% in 15 min, held 3 min, 100 µL/min. The note with it: column: Zorbax Extend-C18 2.1 x 50 mm; eluents: water / acetonitrile, 0.1% formic acid. An outline of the steps: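 Standards, all pure, were combined into mixtures of ~100 molecules and run at 100 μL/min on a Zorbax Extend-C18 column (2.1 × 50 mm, 1.8 μm) with water and acetonitrile, each containing 0.1% formic acid. A coupled quadrupole time-of-flight mass spectrometer operated in positive and negative ionization mode. Retention time values come from computationally picked adduct peaks, each inspected manually.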
In turn, `Cc1ccc(-n2c(N3CCCC(C(=O)Nc4ccc(Cl)cc4)C3)nc3ccsc3c2=O)cc1` (centres undefined) yielded an RP-LC retention time of 1080 s.

`Cc1nc(-c2ccc3c(c2)CCN3C(=O)C2CCOC2)cs1` (centres undefined): the RP-LC retention time is 760 s.

Molecule `Cc1ccc(-c2cc3c4nnc(SCC(=O)Nc5ccc(F)cc5)n4ccn3n2)cc1C` had an RP-LC retention time of 931 s.

For `CCCc1nc(-c2c(C)cc(C)nc2NC(=O)c2cc(C)ccc2C)no1`, the RP-LC retention time was determined as 946 s.

Molecule `Cc1nc(C)c(C(=O)Nc2nc(-c3ccccc3)c(C)s2)s1` gave an RP-LC retention time of 930 s.

For `COc1ccc(C)cc1NC(=O)Cn1nc2nc(Nc3ccc(C)cc3)ccn2c1=O`, the RP-LC retention time turned out to be 862 s.

`CC(NC(=O)c1ccco1)C(=O)NCc1nn(C)c2ccccc12` (centres undefined) registered an RP-LC retention time of 646 s.

As to `COc1ccc(C(=O)Nc2ccc3c(c2)Sc2ncccc2C(=O)N3C)cn1`, the RP-LC retention time amounted to 710 s.

`COCC(=O)Nc1ccc2nc(N3CCN(CC(=O)N4CCCCC4)CC3)cc(C(=O)O)c2c1`: the RP-LC retention time was 558 s.

With `CSc1ncccc1-c1nc(-c2ccc3c(c2)ncn3CCN2CCCCC2)no1`, the RP-LC retention time is 649 s.

For the molecule `CCOc1ccc(NS(=O)(=O)c2cc(C(=O)Nc3cccc(Cl)c3)n[nH]2)cc1`, the RP-LC retention time amounted to 916 s.

In turn, `CCCCS(=O)(=O)c1cc2c(cc1NC(=O)c1ccc(C)cc1)n(C)c(=O)n2C` had an RP-LC retention time of 955 s.

With `Cc1ccc(CNC(=O)Cn2ccc3ccc(-c4nnc(C)o4)cc32)o1`, the RP-LC retention time was 729 s.

In turn, `O=C(Nc1ccc(Cl)cc1)C1CCCN(c2ncnc3c2nc2n3CCCCC2)C1` (centres undefined) showed an RP-LC retention time of 877 s.

In turn, `COc1cccc(S(=O)(=O)N2CCC3(CC2)c2nccn2CCN3C)c1` came in with an RP-LC retention time of 607 s.

`CC(=O)N1CCc2cc(-c3ccc(C(=O)NC4CCS(=O)(=O)C4)cc3)ccc21` (centres undefined) gave an RP-LC retention time of 676 s.

For the molecule `Cc1ccc(CNC(=O)C2(C)CCN(S(=O)(=O)c3ccc(C)cc3C)CC2)cc1`, the RP-LC retention time worked out at 1040 s.

Molecule `Cn1nnc2cc(CNC(=O)c3ccccn3)ccc21` had an RP-LC retention time of 651 s.

For the molecule `O=C(Cn1ccc2c(SCc3ccccc3)nccc21)N1CCN(c2ccc(F)cc2)CC1`, the RP-LC retention time was 786 s.

In the case of `Cc1ccc(/C=C/S(=O)(=O)NCCn2nc(-c3cccnc3)ccc2=O)cc1`, the RP-LC retention time came to 638 s.

For `CCC1CN2C=NC(N3CCN(C(=O)Nc4ccc(OC)c(Cl)c4)CC3)=CC2=N1` (centres undefined), the RP-LC retention time was 807 s.

In turn, `CCOC(=O)c1c(C)[nH]c(CCC(=O)NCCN2CCCC2)c1C` displayed an RP-LC retention time of 554 s.

As to `Cc1cc(F)ccc1N1C(=O)CN(S(C)(=O)=O)CC1(C)C(=O)NCc1ccc(F)cc1` (centres undefined), the RP-LC retention time was found to be 814 s.

In the case of `Cc1ccc(CN2CCCC(c3nc(C(C)C)no3)CCNC(=O)CC2)s1` (centres undefined), the RP-LC retention time stood at 661 s.

`CCC(=O)N1c2ccc(S(=O)(=O)CCC(=O)N3CCCc4ccccc43)cc2CC1C` (centres undefined) displayed an RP-LC retention time of 881 s.

`COc1cccc(S(=O)(=O)N2CCC(c3noc(-c4cccc(C)c4)n3)CC2)c1`: the RP-LC retention time is 1180 s.

In turn, `CC1=C(C(=O)OCCc2ccccc2)C(c2cccs2)NC(=O)N1` (centres undefined) had an RP-LC retention time of 821 s.

In turn, `COc1ccc(-c2c(C(=O)NCCN3CCOCC3)nc3ccccn23)cc1` showed an RP-LC retention time of 601 s.

In turn, `C=CCN1CCN(C(=O)c2ccc3c(c2)Sc2ncccc2C(=O)N3CC)CC1` registered an RP-LC retention time of 564 s.

`O=C1NC(C(=O)Nc2cccc(Cl)c2)Cn2cccc21` (centres undefined) displayed an RP-LC retention time of 721 s.

Regarding `OC(COCCOc1c(F)cc(Br)cc1F)CSc1ccccn1` (centres undefined), the RP-LC retention time amounted to 934 s.

For `CN(C)C1(CC2CC2)CCN(C(=O)c2ccoc2)CC1`, the RP-LC retention time amounted to 556 s.

Turning to `CSc1ccc(CNC(=O)C2CCN(c3c(C#N)cnc4ccc(Cl)cc34)CC2)cc1`, the RP-LC retention time worked out at 960 s.

As to `CC1=C(c2ccc(F)cc2)S(=O)(=O)N=C1N1CCCN(C(=O)c2ccccc2F)CC1`, the RP-LC retention time is 817 s.

For the molecule `COC(=O)c1cnc2nc(C)ccc2c1Nc1ccccc1`, the RP-LC retention time worked out at 627 s.

Consider `CCN1C(=O)c2cc(S(=O)(=O)NCc3ccc(F)cc3)ccc2Oc2cccnc21`, for which the RP-LC retention time was determined as 1060 s.

In turn, `O=C(CCNc1c(-c2cccc(F)c2)nc2cnccn12)NCc1ccc2c(c1)OCO2` returned an RP-LC retention time of 712 s.

In turn, `O=C(NCc1ccc(-c2noc(Cc3ccccc3F)n2)s1)C1CC1` gave an RP-LC retention time of 868 s.

`CCc1ccc(CNC(=O)C2CC(=O)N(c3ccc4oc(C)nc4c3)C2)cc1` (centres undefined) came in with an RP-LC retention time of 671 s.

`N#CCN(c1ccc2c(c1)OCCO2)S(=O)(=O)c1ccc2nncn2c1`: the RP-LC retention time worked out at 690 s.

Consider `CC(C)CC(=O)N1CCC(COc2ccc(C(=O)NC3CC3)cc2)CC1`, for which the RP-LC retention time came to 758 s.

Molecule `CCC(=O)N1CCN(c2nc3c(s2)CC(C(=O)Nc2cc(F)ccc2F)CC3)CC1` (centres undefined) had an RP-LC retention time of 633 s.

Molecule `Cn1cc(C(CNC(=O)Nc2ccc3c(c2)OCO3)c2cccnc2)c2ccccc21` (centres undefined) yielded an RP-LC retention time of 684 s.

`CN1CCN(C(=O)C2CCN(S(=O)(=O)c3ccc(-c4noc(C5CC5)n4)cc3)CC2)CC1` gave an RP-LC retention time of 636 s.

Molecule `Cc1nc2cc(-c3noc(COc4ccc(Cl)cc4C)n3)ccc2o1` had an RP-LC retention time of 1180 s.

In the case of `O=C(CCn1c(N2CCCC2)nc2ccsc2c1=O)NCc1ccccc1F`, the RP-LC retention time came to 748 s.

Molecule `O=C(COc1ccccc1)Nc1cnc(N2CCCCC2)nc1` registered an RP-LC retention time of 919 s.

For the molecule `Cc1cccc(C)c1NC(=O)Cn1nc2n(c1=O)CCCC2`, the RP-LC retention time was determined as 632 s.

Consider `COCCn1cc2c3c(cccc31)CN(C(=O)Nc1cc(OC)c(OC)c(OC)c1)CC2`, for which the RP-LC retention time is 825 s.

`COc1cc(NS(=O)(=O)c2ccc(Nc3nc(-c4ccc(C)cc4)cs3)cc2)nc(OC)n1` displayed an RP-LC retention time of 1100 s.

As for `O=C(Cn1c2ccccc2c2ncn(Cc3nc(-c4ccccc4)no3)c(=O)c21)NC1CCCC1`, the RP-LC retention time stood at 912 s.

With `C=C(CN(C)C)C(=O)c1ccccc1Cl`, the RP-LC retention time is 594 s.

`CCOC(=O)c1cc(S(=O)(=O)N2CCCC2C(=O)Nc2ccc(C)cc2C)cn1C` (centres undefined) yielded an RP-LC retention time of 957 s.

As to `Cc1cccc(N2CCN(C(=O)c3cn4cc(C)ccc4n3)CC2)c1`, the RP-LC retention time worked out at 702 s.

In turn, `O=c1n(Cc2ccc(Cl)cc2)nc2c(S(=O)(=O)N3CCc4ccccc4C3)cccn12` came in with an RP-LC retention time of 1020 s.

Molecule `Cc1ccc(-c2ccc(N3CCN(c4ccccn4)CC3)nn2)cc1S(=O)(=O)N1CCCC1` displayed an RP-LC retention time of 656 s.

Turning to `Cc1oc(C(C)C)nc1C(=O)NCc1ccncc1`, the RP-LC retention time turned out to be 590 s.

Consider `CC1C(=O)NCCN1C(=O)c1cc(Cl)ccc1Cl` (centres undefined), for which the RP-LC retention time stood at 612 s.

The molecule `CCOC(=O)N1CCN(CC(O)COc2c(F)cc(Br)cc2F)CC1` (centres undefined) yielded an RP-LC retention time of 591 s.

In the case of `O=S(=O)(c1cc(-c2nnc(C3CCC3)o2)co1)N1CCN(c2ccccc2F)CC1`, the RP-LC retention time amounted to 1070 s.

For `O=C(C1CCCO1)N1CCCn2nc(-c3cccs3)cc2C1` (centres undefined), the RP-LC retention time turned out to be 689 s.

Consider `CCOC(=O)c1sc2nc(C)cc(C)c2c1NC(=O)CCS(=O)(=O)c1ccccc1`, for which the RP-LC retention time was 759 s.

As for `Cc1nccn1CC(=O)N1CCCC(OCc2nc(C(C)C)no2)C1` (centres undefined), the RP-LC retention time was found to be 596 s.

`CC1(C)Cc2cccc(OCc3ccc(C(=O)NCc4ccccn4)cc3)c2O1` showed an RP-LC retention time of 663 s.

Take `O=C(Cn1ccn2nc(-c3ccc(F)cc3)c(CO)c2c1=O)Nc1ccc(F)cc1F`: the RP-LC retention time turned out to be 821 s.

For `COc1ccc(C2C(C(=O)Nc3ccc4c(c3)OCO4)c3cc(OC)c(OC)cc3C(=O)N2C)cc1` (centres undefined), the RP-LC retention time came out at 798 s.

`O=c1n(Cc2ccccc2)nc2n1CCN(S(=O)(=O)c1ccc3c(c1)CCC3)CC2` had an RP-LC retention time of 931 s.

On to `CCn1ccc2oc(C)c(C(=O)N3CCN(c4ccc(OC)cc4)CC3)c2c1=O`, for which the RP-LC retention time stood at 682 s.

As to `CCCNC(=O)C1CCN(c2cc(SCC(=O)Nc3cccc(CC)c3)ncn2)CC1`, the RP-LC retention time turned out to be 810 s.

Molecule `CCCCNC(=O)Cc1nnc(-c2cccc(F)c2)o1` registered an RP-LC retention time of 731 s.

The molecule `CC(C)CCNC(=O)[C@H](CC(C)C)NC(=O)[C@H]1O[C@@H]1C(=O)O` gave an RP-LC retention time of 841 s.

The molecule `CCc1noc2nc(C)nc(N3CCCC(C(=O)NC4CC4)C3)c12` (centres undefined) came in with an RP-LC retention time of 711 s.

The molecule `Cc1cccc(NC(=O)NC2CCN(C(=O)N3C[C@@H]4C[C@H](C3)[C@H]3CCCC(=O)N3C4)CC2)c1` returned an RP-LC retention time of 669 s.

For the molecule `O=C1CCc2cc(NC(=O)c3cccnc3)ccc2N1`, the RP-LC retention time came out at 579 s.

Consider `Cc1ccc(NC(=O)Cn2c(N3CCCC3)nc(C)cc2=O)cc1`, for which the RP-LC retention time was found to be 636 s.

In turn, `CO[C@H]1C(=O)N(C2CCN(S(=O)(=O)c3ccc4c(c3)CCC4)CC2)[C@H]1c1ccncc1` yielded an RP-LC retention time of 704 s.

For the molecule `CCOc1ccccc1NC(=O)Cn1c(CC)nc2c(c1=O)CN(Cc1ccccc1)CC2`, the RP-LC retention time turned out to be 687 s.

Molecule `Cc1ccc2nc(-c3c(F)cccc3Cl)c(Nc3ccc4c(c3)OCCO4)n2c1` came in with an RP-LC retention time of 692 s.

Take `COCCN1C(=O)[C@H]2CN(Cc3cccc4[nH]ccc34)C[C@H]2C1=O`: the RP-LC retention time was 583 s.
